Test results as given in paper PMC4052318, “Cyclodepsipeptides and Other O-Containing Heterocyclic Metabolites from Beauveria felina EN-135, a Marine-Derived Entomopathogenic Fungus” (Marine Drugs, 2014).
≈ marks a conversion by molar mass, not a printed value. Numbered stars: 1 amine (or outer) side, 2 acyl side, 3 side chain; on linkers, the order of the positions; unused ones are H or OH. Square brackets hold non-standard residues; d marks the D form. Peptide text beside a SMILES is read from it. X1 = O=C([C@@H](C[C@H](O)CCl)O[*:1])[*:2]; dLac(3-vinyl) = C=CC[C@@H](O)C(=O)O; NMeV = CN[C@H](C(=O)O)C(C)C; NMeA = CN[C@@H](C)C(=O)O; βAla = NCCC(=O)O

Assays:
[1] = tested on: brine shrimp (Artemia salina); assay: Brine-shrimp lethality; type: in vivo; settings: for lethal rate against brine shrimp: at a concentration of 100 μg/mL; for LD50, lethality against brine shrimp: colchicine as positive control
Description: The brine-shrimp (Artemia salina) lethality of the isolated compounds was determined as previously described. Colchicine was used as a positive control.

P. aeruginosa = assay: Antimicrobial assay (disk diffusion and double dilution methods); type: cell-based; settings: Pseudomonas aeruginosa; chloramphenicol as positive control; read-out: MIC against P. aeruginosa
Source text: The antibacterial activities against E. coli, S. aureus, P. aeruginosa, V. alginolyticus, V. anguillarum, and E. tarda along with the antifungal activities against P. piricola, A. brassicae, C. gloeosporioides, and C. fusarium were investigated using the disk diffusion and double dilution methods as previously described. Chloramphenicol and amphotericin B were used as positive controls for the antibacterial and antifungal bioassays, respectively.

**Q.** For felinone B [Compound 3], which “lethal rate against brine shrimp” value [1] is on record?
**A.** 59.6%

**Q.** For `C=CC[C@H]1OC(=O)CCNC(=O)[C@H](C)N(C)C(=O)[C@H](C(C)C)N(C)C(=O)[C@H]([C@@H](C)CC)NC(=O)[C@@H]2CCCN2C1=O` [Compound 4, destruxin A] (cyclo([dLac(3-vinyl)]PI[NMeV][NMeA][βAla])), which “LD50, lethality against brine shrimp” value [1] is on record?
**A.** 5.34 μΜ

**Q.** How did the MIC (P. aeruginosa) turn out when `O=C(N[C@H](CO)[C@H](O)c1ccc([N+](=O)[O-])cc1)C(Cl)Cl` [chloramphenicol] was run?
**A.** 4 µg/mL (≈ 12.4 µM)

**Q.** `C[C@@H]1CC2=C(CO1)C(=O)[C@@](C)(O)[C@H](O)C2` [Compound 2, felinone A] was tested. Which “lethal rate against brine shrimp” value [1] did it give?
**A.** 61.4%

**Q.** For `CC[C@H](C)[C@@H]1CC(=O)NCC(=O)N[C@@H](C(C)C)C(=O)N[C@H](CC(C)C)C(=O)N[C@@H](C)C(=O)N[C@@H](C)C(=O)O1` [Compound 1, iso-isariin D], which “LD50, lethality against brine shrimp” value [1] is on record?
**A.** 26.58 μΜ

**Q.** For `COc1cc2c(c(OC)c1OC)-c1ccc(OC)c(=O)cc1[C@@H](NC(C)=O)CC2` [colchicine, reference compound], which “LD50, lethality against brine shrimp” value [1] is on record?
**A.** 88.4 μΜ

**Q.** How did the “LD50, lethality against brine shrimp” value [1] turn out when `CC[C@H](C)[C@@H]1NC(=O)[C@@H]2CCCN2C(=O)[C@@H](C[C@H](O)CCl)OC(=O)CCNC(=O)[C@H](C)N(C)C(=O)[C@H](C(C)C)N(C)C1=O` [Compound 6, destruxin E chlorohydrin] (cyclo([X1]PI[NMeV][NMeA][βAla])) was run?
**A.** 2.16 μΜ
